# Experimental data published in patent publication US4755513A, “Antimicrobial 1-substituted phenyl-4-oxoquinoline-3-carboxylic acid compounds” (Otsuka Pharmaceutical Company, Limited, priority 1985, dated 1988).
# Like-named read-outs stand apart in the source and are kept apart here.
# Legend:
# [1] = system: Acinetobacter calcoaceticus AC-54; assay: MIC by serial dilution method on agar plate; format: cell-based
# From the text: (§1) Chemotherapy, 22, 1126-1128 (1974)]. The microorganisms were used in a concentration of 1×10^8 cells/ml (O.D. 660 mμ, 0.07-0.16) and 1×10^6 cells/ml (100 folds dilution).
# [2] = system: Bacillus subtilis ATCC 6633; assay: MIC by serial dilution method on agar plate; format: cell-based
# From the text: as §1
# [3] = system: Pseudomonas aeruginosa E-2; assay: MIC by serial dilution method on agar plate; format: cell-based
# From the text: as §1
# [4] = system: Serratia marcescens IFO 12648; assay: MIC by serial dilution method on agar plate; format: cell-based
# From the text: as §1
# [5] = system: Streptococcus faecalis IFO 12580; assay: MIC by serial dilution method on agar plate; format: cell-based
# From the text: as §1
# [6] = system: Escherichia coli NIHJ JC-2; assay: MIC by serial dilution method on agar plate; format: cell-based
# From the text: as §1
# [7] = system: Klebsiella pneumoniae NCTC 9632; assay: MIC by serial dilution method on agar plate; format: cell-based
# From the text: as §1
# [8] = system: Proteus inconstans IFO 12930; assay: MIC by serial dilution method on agar plate; format: cell-based
# From the text: as §1
# Escherichia coli No. 29 = assay: MIC by serial dilution method on agar plate; format: cell-based
# From the text: as §1
# [9] = system: Proteus morganii IID Kono; assay: MIC by serial dilution method on agar plate; format: cell-based
# From the text: as §1
# [10] = system: Pseudomonas aeruginosa ATCC 10145; assay: MIC by serial dilution method on agar plate; format: cell-based
# From the text: as §1
# [11] = system: Staphylococcus aureus FDA 209P; assay: MIC by serial dilution method on agar plate; format: cell-based
# From the text: (§2) The microorganisms were used in a concentration of 1×10^8 cells/ml (O.D. 660 mμ, 0.07-0.16) and 1×10^6 cells/ml (100 folds dilution).
# [12] = system: Staphylococcus pyrogens IID S-23; assay: MIC by serial dilution method on agar plate; format: cell-based
# From the text: as §2
# [13] = Absorption by oral administration in monkey (plasma concentration, thin layer cup bio-assay); format: in vivo; settings: 10 mg/kg;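 also: plasma concentration in γ/ml (µg/mL) rather than the printed ng/mL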
# Method: The test compounds were dissolved in 0.1N hydrochloric acid or suspended in 0.5% sodium carboxymethyl cellulose solution. The solution or suspension was administered into stomach of monkey (two monkeys) with cathetel. After the administration of test compounds, the blood was collected from the lower limbs vein at a fixed interval with a syringe treated with heparin. The collected blood was centrifuged at 3,000 r.p.m. for 10 minutes to separate the plasma. The concentration of the test compound was measured by a thin layer cup method (a bio-assay), wherein Bacillus subtilis ATCC 6633 was used as a bacteria for determination. Based on a standard curve, the concentration of test compound in plasma was calculated.
compound,measurement,setting,value
"6,8-Difluoro-1-(4-hydroxyphenyl)-7-(1-piperazinyl)-1,4-dihydro-4-oxoquinoline-3-carboxylic acid [Example 2]",minimum inhibitory concentration (MIC),[1]; 1 × 10^6 cells/ml,0.195
same,minimum inhibitory concentration (MIC),[1]; 1 × 10^8 cells/ml,0.39
same,minimum inhibitory concentration (MIC),[2]; 1 × 10^6 cells/ml,0.097
same,minimum inhibitory concentration (MIC),[2]; 1 × 10^8 cells/ml,0.195
same,minimum inhibitory concentration (MIC),[3]; 1 × 10^6 cells/ml,0.781
same,minimum inhibitory concentration (MIC),[3]; 1 × 10^8 cells/ml,1.56
same,minimum inhibitory concentration (MIC),[4]; 1 × 10^6 cells/ml,0.097
same,minimum inhibitory concentration (MIC),[4]; 1 × 10^8 cells/ml,0.195
same,minimum inhibitory concentration (MIC),[5]; 1 × 10^6 cells/ml,3.12
same,minimum inhibitory concentration (MIC),[5]; 1 × 10^8 cells/ml,6.25
same,minimum inhibitory concentration (MIC),[6]; 1 × 10^6 cells/ml,< 0.048
same,minimum inhibitory concentration (MIC),[6]; 1 × 10^8 cells/ml,< 0.048
same,minimum inhibitory concentration (MIC),[7]; 1 × 10^6 cells/ml,< 0.048
same,minimum inhibitory concentration (MIC),[7]; 1 × 10^8 cells/ml,< 0.048
same,minimum inhibitory concentration (MIC),[8]; 1 × 10^6 cells/ml,0.195
same,minimum inhibitory concentration (MIC),[8]; 1 × 10^8 cells/ml,0.39
same,minimum inhibitory concentration (MIC),Escherichia coli No. 29; 1 × 10^6 cells/ml,< 0.048
same,minimum inhibitory concentration (MIC),Escherichia coli No. 29; 1 × 10^8 cells/ml,< 0.048
same,minimum inhibitory concentration (MIC),[9]; 1 × 10^6 cells/ml,0.048
same,minimum inhibitory concentration (MIC),[9]; 1 × 10^8 cells/ml,0.097
same,minimum inhibitory concentration (MIC),[10]; 1 × 10^6 cells/ml,0.781
same,minimum inhibitory concentration (MIC),[10]; 1 × 10^8 cells/ml,1.56
same,minimum inhibitory concentration (MIC),[11]; 1 × 10^6 cells/ml,0.195
same,minimum inhibitory concentration (MIC),[11]; 1 × 10^8 cells/ml,0.39
same,minimum inhibitory concentration (MIC),[12]; 1 × 10^8 cells/ml,12.5
"CN1CCN(c2c(F)cc3c(=O)c(C(=O)O)cn(-c4ccc(O)cc4)c3c2F)CC1 [Test Compd. No. 1, 6,8-Difluoro-1-(4-hydroxyphenyl)-7-(4-methyl-1-piperazinyl)-1,4-dihydro-4-oxoquinoline-3-carboxylic acid]",minimum inhibitory concentration (MIC),[1]; 1 × 10^6 cells/ml,< 0.048
same,minimum inhibitory concentration (MIC),[1]; 1 × 10^8 cells/ml,0.097
same,minimum inhibitory concentration (MIC),[2]; 1 × 10^6 cells/ml,< 0.048
same,minimum inhibitory concentration (MIC),[2]; 1 × 10^8 cells/ml,< 0.048
same,minimum inhibitory concentration (MIC),[3]; 1 × 10^6 cells/ml,0.097
same,minimum inhibitory concentration (MIC),[3]; 1 × 10^8 cells/ml,0.195
same,minimum inhibitory concentration (MIC),[4]; 1 × 10^6 cells/ml,< 0.048
same,minimum inhibitory concentration (MIC),[4]; 1 × 10^8 cells/ml,< 0.048
same,minimum inhibitory concentration (MIC),[5]; 1 × 10^6 cells/ml,0.097
same,minimum inhibitory concentration (MIC),[5]; 1 × 10^8 cells/ml,0.195
same,minimum inhibitory concentration (MIC),[6]; 1 × 10^6 cells/ml,< 0.048
same,minimum inhibitory concentration (MIC),[6]; 1 × 10^8 cells/ml,< 0.048
same,minimum inhibitory concentration (MIC),[7]; 1 × 10^6 cells/ml,< 0.048
same,minimum inhibitory concentration (MIC),[7]; 1 × 10^8 cells/ml,< 0.048
same,minimum inhibitory concentration (MIC),[8]; 1 × 10^6 cells/ml,0.097
same,minimum inhibitory concentration (MIC),[8]; 1 × 10^8 cells/ml,0.195
same,minimum inhibitory concentration (MIC),Escherichia coli No. 29; 1 × 10^6 cells/ml,< 0.048
same,minimum inhibitory concentration (MIC),Escherichia coli No. 29; 1 × 10^8 cells/ml,< 0.048
same,minimum inhibitory concentration (MIC),[9]; 1 × 10^6 cells/ml,< 0.048
same,minimum inhibitory concentration (MIC),[9]; 1 × 10^8 cells/ml,0.097
same,minimum inhibitory concentration (MIC),[10]; 1 × 10^6 cells/ml,0.195
same,minimum inhibitory concentration (MIC),[10]; 1 × 10^8 cells/ml,0.39
same,minimum inhibitory concentration (MIC),[11]; 1 × 10^6 cells/ml,< 0.048
same,minimum inhibitory concentration (MIC),[11]; 1 × 10^8 cells/ml,< 0.048
same,minimum inhibitory concentration (MIC),[12]; 1 × 10^6 cells/ml,0.39
same,minimum inhibitory concentration (MIC),[12]; 1 × 10^8 cells/ml,0.781
same,concentration at 0.5 h,"[13]; Run 1, 0.5 hour, read-out: Amount of test compd. in plasma",2350 ng/mL
same,concentration at 1 h,"[13]; Run 1, 1 hour, read-out: Amount of test compd. in plasma",4260 ng/mL
same,concentration at 2 h,"[13]; Run 1, 2 hour, read-out: Amount of test compd. in plasma",1940 ng/mL
same,concentration at 4 h,"[13]; Run 1, 4 hour, read-out: Amount of test compd. in plasma",720 ng/mL
same,concentration at 7 h,"[13]; Run 1, 7 hour, read-out: Amount of test compd. in plasma",< 200 ng/mL
same,concentration at 24 h,"[13]; Run 1, 24 hour, read-out: Amount of test compd. in plasma",< 200 ng/mL
same,concentration at 0.5 h,"[13]; Run 2, 0.5 hour, read-out: Amount of test compd. in plasma",< 200 ng/mL
same,concentration at 1 h,"[13]; Run 2, 1 hour, read-out: Amount of test compd. in plasma",2180 ng/mL
same,concentration at 2 h,"[13]; Run 2, 2 hour, read-out: Amount of test compd. in plasma",1120 ng/mL
same,concentration at 4 h,"[13]; Run 2, 4 hour, read-out: Amount of test compd. in plasma",1120 ng/mL
same,concentration at 7 h,"[13]; Run 2, 7 hour, read-out: Amount of test compd. in plasma",< 200 ng/mL
same,concentration at 24 h,"[13]; Run 2, 24 hour, read-out: Amount of test compd. in plasma",< 200 ng/mL
same,concentration at 0.5 h,"[13]; average of two runs, 0.5 hour, read-out: Amount of test compd. in plasma, Average",< 1370 ng/mL
same,concentration at 1 h,"[13]; average of two runs, 1 hour, read-out: Amount of test compd. in plasma, Average",3220 ng/mL
same,concentration at 2 h,"[13]; average of two runs, 2 hour, read-out: Amount of test compd. in plasma, Average",1530 ng/mL
same,concentration at 4 h,"[13]; average of two runs, 4 hour, read-out: Amount of test compd. in plasma, Average",920 ng/mL
same,concentration at 7 h,"[13]; average of two runs, 7 hour, read-out: Amount of test compd. in plasma, Average",< 390 ng/mL
same,concentration at 24 h,"[13]; average of two runs, 24 hour, read-out: Amount of test compd. in plasma, Average",< 390 ng/mL
